Test results from ChEMBL document CHEMBL1150801, “Efficacy of fluoroquinolones against Leptospira interrogans in a hamster model” (Antimicrob Agents Chemother, 2007).
The source made the active and inactive calls. No cut-off for these calls is given here.

How the values were obtained:
[1] = tested on: Leptospira interrogans serovar Portlandvere; experiment: Antimicrobial activity against Leptospira interrogans serovar Portlandvere infected golden Syrian hamster model of acute lethal leptospirosis assessed as survival at 50 mg/kg/day, ip once daily for 5 days administered 2 day after infection; format: functional; conditions: route intraperitoneal
[2] = tested on: Leptospira interrogans serovar Portlandvere; experiment: Antimicrobial activity against Leptospira interrogans serovar Portlandvere infected golden Syrian hamster model of acute lethal leptospirosis assessed as survival at 25 mg/kg/day, ip once daily for 5 days administered 2 day after infection; format: functional; conditions: route intraperitoneal
[3] = tested on: Leptospira interrogans serovar Portlandvere; experiment: Antimicrobial activity against Leptospira interrogans serovar Portlandvere infected golden Syrian hamster model of acute lethal leptospirosis assessed as survival at 5 mg/kg/day, ip once daily for 5 days administered 2 day after infection; format: functional; conditions: for survival at 5 mg/kg/day: route intraperitoneal
Syrian golden hamster = experiment: Toxicity against Leptospira interrogans serovar Portlandvere infected golden Syrian hamster model of acute lethal leptospirosis assessed as induction of diarrhea at 50 mg/kg/day, ip once daily for 5 days administered 2 day after infection; format: organism-based, Mesocricetus auratus; design: route intraperitoneal; conditions: in vivo

C[C@H]1COc2c(N3CCN(C)CC3)c(F)cc3c(=O)c(C(=O)O)cn1c23 [LEVOFLOXACIN]
survival at 50 mg/kg/day [1]: 95% | survival at 25 mg/kg/day [2]: 95% | survival at 5 mg/kg/day [3]: 40%

O=C(O)c1cn(C2CC2)c2cc(N3CCNCC3)c(F)cc2c1=O [CIPROFLOXACIN]
survival at 50 mg/kg/day [1]: 90% | survival at 25 mg/kg/day [2]: 60% | Activity [3]: Active

COc1c(N2CCNC(C)C2)c(F)cc2c(=O)c(C(=O)O)cn(C3CC3)c12 (stereo unspecified) [GATIFLOXACIN]
survival at 50 mg/kg/day [1]: 60% | survival at 25 mg/kg/day [2]: 100% | survival at 5 mg/kg/day [3]: 90% | Activity (Syrian golden hamster): Toxic

C[C@H]1c2cccc(O)c2C(=O)C2=C(O)[C@]3(O)C(=O)C(C(N)=O)=C(O)[C@@H](N(C)C)[C@@H]3[C@@H](O)[C@@H]21
Activity [3]: Active
